Results reported in EP0019937B1, “A method for producing alcohol oxidase, alcohol oxidase, enzyme preparation and a method for determining the concentration of a compound in an alcohol-containing sample” (PHILLIPS PETROLEUM COMPANY, priority 1979, dated 1980).

Columns and labels:
[1] = target: T1, alcohol oxidase from Pichia pastoris (Komagataella phaffii, UniProt P04842); assay: Characteristics of the Pichia enzyme (Km, inhibitors, substrate reactivity); format: biochemical
T1 construct: preparation and isolation of pure crystalline alcohol oxidase from Pichia pastoris; endogenous in cells; homogenate supernatant dialysed to give crystalline enzyme
T1 sequence (P04842 1-663): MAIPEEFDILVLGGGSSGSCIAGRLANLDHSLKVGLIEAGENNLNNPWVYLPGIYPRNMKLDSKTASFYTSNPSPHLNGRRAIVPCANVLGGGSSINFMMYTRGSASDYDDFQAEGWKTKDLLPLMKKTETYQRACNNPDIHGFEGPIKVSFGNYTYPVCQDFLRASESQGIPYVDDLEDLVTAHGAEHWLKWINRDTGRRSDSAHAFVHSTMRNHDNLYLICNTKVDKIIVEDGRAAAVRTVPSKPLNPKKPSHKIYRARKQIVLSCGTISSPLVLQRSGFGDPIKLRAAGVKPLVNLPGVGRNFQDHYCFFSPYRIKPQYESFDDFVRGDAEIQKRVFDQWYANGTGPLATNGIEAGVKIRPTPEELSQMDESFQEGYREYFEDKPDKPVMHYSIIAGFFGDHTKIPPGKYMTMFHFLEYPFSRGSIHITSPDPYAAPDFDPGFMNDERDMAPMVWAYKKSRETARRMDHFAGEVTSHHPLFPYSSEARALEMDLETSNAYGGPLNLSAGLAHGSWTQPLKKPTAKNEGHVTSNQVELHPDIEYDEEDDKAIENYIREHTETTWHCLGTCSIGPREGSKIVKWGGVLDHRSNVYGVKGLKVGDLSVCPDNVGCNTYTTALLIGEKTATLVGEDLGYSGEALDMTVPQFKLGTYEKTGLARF

[2] = substrate: CO; assay: purified protein, by the assay type; settings: other: apparent Michaelis constant; pH 6.5

CC=O [acetaldehyde]
reactivity of the alcohol oxidase toward substrate [1]: not reactive

CO [Methanol]
Km ([1]; read-out: Km for methanol, apparent Michaelis constant): 4 mM

B1: alcohol oxidase from Pichia pastoris (Komagataella phaffii GS115) (protein)
chain: MAIPEEFDILVLGGGSSGSCIAGRLANLDHSLKVGLIEAGENNLNNPWVYLPGIYPRNMKLDSKTASFYTSNPSPHLNGRRAIVPCANVLGGGSSINFMMYTRGSASDYDDFQAEGWKTKDLLPLMKKTETYQRACNNPDIHGFEGPIKVSFGNYTYPVCQDFLRASESQGIPYVDDLEDLVTAHGAEHWLKWINRDTGRRSDSAHAFVHSTMRNHDNLYLICNTKVDKIIVEDGRAAAVRTVPSKPLNPKKPSHKIYRARKQIVLSCGTISSPLVLQRSGFGDPIKLRAAGVKPLVNLPGVGRNFQDHYCFFSPYRIKPQYESFDDFVRGDAEIQKRVFDQWYANGTGPLATNGIEAGVKIRPTPEELSQMDESFQEGYREYFEDKPDKPVMHYSIIAGFFGDHTKIPPGKYMTMFHFLEYPFSRGSIHITSPDPYAAPDFDPGFMNDERDMAPMVWAYKKSRETARRMDHFAGEVTSHHPLFPYSSEARALEMDLETSNAYGGPLNLSAGLAHGSWTQPLKKPTAKNEGHVTSNQVELHPDIEYDEEDDKAIENYIREHTETTWHCLGTCSIGPREGSKIVKWGGVLDHRSNVYGVKGLKVGDLSVCPDNVGCNTYTTALLIGEKTATLVGEDLGYSGEALDMTVPQFKLGTYEKTGLARF
Km [2]: 4 mM
